Measured values taken from ChEMBL document CHEMBL3632516, “Influence of polar side chains modifications on the dual enkephalinase inhibitory activity and conformation of human opiorphin, a pain perception related peptide” (Bioorg Med Chem Lett, 2015).
pIC50: −log10 of the molar value. Residues, ends and D or L forms follow the SMILES beside them. *: point of attachment. X1 = CC(=O)N[C@@H]1[C@@H](O)[C@H](O)[C@@H](CO)O[C@@H]1*

Tests used:
Neprilysin = Neprilysin (Homo sapiens, UniProt P08473); assay: Inhibition of human recombinant neutral endopeptidase using […] as substrate after 20 to 40 mins by fluorometry
Sequence of Neprilysin (P08473 whole entry): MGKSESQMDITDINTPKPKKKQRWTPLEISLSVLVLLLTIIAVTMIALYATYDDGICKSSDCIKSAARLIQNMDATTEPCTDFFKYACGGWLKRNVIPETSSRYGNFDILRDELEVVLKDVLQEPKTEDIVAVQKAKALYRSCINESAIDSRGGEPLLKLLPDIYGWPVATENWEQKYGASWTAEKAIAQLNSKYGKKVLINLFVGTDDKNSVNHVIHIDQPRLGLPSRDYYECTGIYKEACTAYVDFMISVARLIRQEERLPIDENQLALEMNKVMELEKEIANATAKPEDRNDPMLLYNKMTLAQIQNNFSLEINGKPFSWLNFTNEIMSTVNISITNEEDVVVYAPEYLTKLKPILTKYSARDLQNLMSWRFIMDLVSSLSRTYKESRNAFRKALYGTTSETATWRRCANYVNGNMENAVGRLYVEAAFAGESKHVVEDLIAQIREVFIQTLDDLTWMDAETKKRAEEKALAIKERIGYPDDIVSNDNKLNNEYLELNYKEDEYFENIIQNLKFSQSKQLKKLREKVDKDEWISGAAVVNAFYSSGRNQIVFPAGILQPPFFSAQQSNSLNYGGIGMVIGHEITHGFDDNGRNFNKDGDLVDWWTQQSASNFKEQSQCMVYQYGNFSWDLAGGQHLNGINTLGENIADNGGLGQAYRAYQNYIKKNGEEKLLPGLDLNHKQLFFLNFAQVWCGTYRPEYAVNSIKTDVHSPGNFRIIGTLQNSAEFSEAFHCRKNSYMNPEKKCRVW

Aminopeptidase N = Aminopeptidase N (Homo sapiens, UniProt P15144); assay: Inhibition of human recombinant aminopeptidase N using […] as substrate after 20 to 40 mins by fluorometry
Sequence of Aminopeptidase N (P15144 whole entry): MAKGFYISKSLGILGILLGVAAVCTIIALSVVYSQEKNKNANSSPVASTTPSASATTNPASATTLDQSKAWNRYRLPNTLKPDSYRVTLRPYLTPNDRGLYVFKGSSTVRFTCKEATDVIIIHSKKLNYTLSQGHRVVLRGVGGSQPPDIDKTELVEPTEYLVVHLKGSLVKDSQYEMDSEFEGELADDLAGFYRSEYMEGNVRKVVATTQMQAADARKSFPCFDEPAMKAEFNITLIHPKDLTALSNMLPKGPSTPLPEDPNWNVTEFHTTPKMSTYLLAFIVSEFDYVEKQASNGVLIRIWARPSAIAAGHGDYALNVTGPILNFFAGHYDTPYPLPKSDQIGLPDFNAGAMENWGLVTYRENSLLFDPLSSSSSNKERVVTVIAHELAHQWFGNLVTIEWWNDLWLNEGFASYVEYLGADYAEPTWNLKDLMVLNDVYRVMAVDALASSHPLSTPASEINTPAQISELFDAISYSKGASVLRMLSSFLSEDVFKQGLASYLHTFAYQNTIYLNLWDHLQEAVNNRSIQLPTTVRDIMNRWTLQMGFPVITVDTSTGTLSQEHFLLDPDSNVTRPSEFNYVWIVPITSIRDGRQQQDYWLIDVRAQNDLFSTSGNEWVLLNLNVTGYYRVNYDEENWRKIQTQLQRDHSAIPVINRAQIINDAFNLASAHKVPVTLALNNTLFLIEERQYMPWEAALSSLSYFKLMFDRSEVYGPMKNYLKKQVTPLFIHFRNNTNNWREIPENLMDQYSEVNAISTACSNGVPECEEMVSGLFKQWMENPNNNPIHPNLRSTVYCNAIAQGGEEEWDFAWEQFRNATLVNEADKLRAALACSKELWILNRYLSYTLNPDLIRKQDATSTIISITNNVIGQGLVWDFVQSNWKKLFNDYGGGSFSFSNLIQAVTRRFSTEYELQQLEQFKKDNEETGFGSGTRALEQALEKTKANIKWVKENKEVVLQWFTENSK

Compound	pIC50 (Neprilysin)	pIC50 (Aminopeptidase N)
H-QRFTR-OH	< 4.00	< 4.00
H-QRFCR-OH	< 4.00	
CC(=O)N[C@H]1[C@@H](O[C@H](C)[C@H](NC(=O)[C@H](Cc2ccccc2)NC(=O)[C@H](CCCNC(=N)N)NC(=O)[C@@H](N)CCC(N)=O)C(=O)N[C@@H](CCCNC(=N)N)C(=O)O)O[C@H](CO)[C@@H](O)[C@@H]1O (H-QRFT(X1)R-OH)	< 4.00	< 4.00
H-QKFSR-OH	4.30	< 4.15
H-QRFSK-OH	4.46	< 4.15
